Measured values from the supplement of paper PMC11451515.

What was measured:
Details in all cases: 48 h
NOMO1 [1] = test: cell viability relative to DMSO control; higher = less cytotoxic
Method in brief: (§1)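 In 1536-well plates, 5 μl of leukemia cells were seeded per well: 500 cells/well for NOMO1 or SEM and 1000 cells/well for P12-Ichikawa. Each line had first been adapted for at least four passages in each medium. Library compounds in DMSO were pin-dosed at 11 threefold concentrations between 47 μM and 0.79 nM, and CellTiter-Glo One luminescence was read after 48 h at 37°C. Viability is a per-plate percentage relative to DMSO wells, with cell-free wells as background.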

P12-Ichikawa [2] = test: as above
Method in brief: as §1

SEM cells [3] = test: as above
Method in brief: as §1

NOMO1 [4] = test: AUC of viability dose-response curve (% viability x log10 dose units); higher = less sensitive
Method in brief: (§2)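 Area under the curve was integrated by trapezoidal rule from a log-logistic fit of normalised viability, with curves exceeding full viability scaled and quality-control failures removed. The fit had four parameters over log10 doses. Viability came from CellTiter-Glo One luminescence, normalised per plate to DMSO and cell-free wells, after leukemia cells adapted to each medium (500 or 1000 cells/well, 1536-well plates) were exposed to library compounds in DMSO for 48 h at 37°C. The 11 threefold doses ran from 47 μM to 0.79 nM.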

P12-Ichikawa [5] = test: as above
Method in brief: as §2

SEM cells [6] = test: as above
Method in brief: as §2

Cn1cnc(N)c2ncnc1-2
cell viability [%]
Details	NOMO1 [1]	P12-Ichikawa [2]	SEM cells [3]
HPLM + 10% dialyzed FBS, 0.000781 µM	111	110	80.5
HPLM + 10% dialyzed FBS, 0.00234 µM	130	116	96.4
HPLM + 10% dialyzed FBS, 0.00702 µM	108	125	111
HPLM + 10% dialyzed FBS, 0.0211 µM	117	127	103
HPLM + 10% dialyzed FBS, 0.0632 µM	139	115	109
HPLM + 10% dialyzed FBS, 0.19 µM	92.4	116	88.9
HPLM + 10% dialyzed FBS, 0.569 µM	139	124	112
HPLM + 10% dialyzed FBS, 1.71 µM	80.3	110	80.3
HPLM + 10% dialyzed FBS, 5.12 µM	63.5	88.5	32
HPLM + 10% dialyzed FBS, 15.4 µM	11.5	5.12	5
HPLM + 10% dialyzed FBS, 46.1 µM	6.59	4.04	4.54
RPMI 5 mM glucose + 10% FBS, 0.000781 µM	99.7	97.1	90.9
RPMI 5 mM glucose + 10% FBS, 0.00234 µM	113	119	99
RPMI 5 mM glucose + 10% FBS, 0.00702 µM	117	114	92.9
RPMI 5 mM glucose + 10% FBS, 0.0211 µM	119	117	87.1
RPMI 5 mM glucose + 10% FBS, 0.0632 µM	131	121	87.8
RPMI 5 mM glucose + 10% FBS, 0.19 µM	111	114	99.5
RPMI 5 mM glucose + 10% FBS, 0.569 µM	118	126	87.2
RPMI 5 mM glucose + 10% FBS, 1.71 µM	117	113	63.6
RPMI 5 mM glucose + 10% FBS, 5.12 µM	94.7	83.6	14.7
RPMI 5 mM glucose + 10% FBS, 15.4 µM	18.5	6.1	4.31
RPMI 5 mM glucose + 10% FBS, 46.1 µM	9.02	3.21	3.65
RPMI 5 mM glucose + 10% dialyzed FBS, 0.000781 µM	102	97.9	108
RPMI 5 mM glucose + 10% dialyzed FBS, 0.00234 µM	124	109	109
RPMI 5 mM glucose + 10% dialyzed FBS, 0.00702 µM	118	117	115
RPMI 5 mM glucose + 10% dialyzed FBS, 0.0211 µM	130	128	84.9
RPMI 5 mM glucose + 10% dialyzed FBS, 0.0632 µM	135	123	112
RPMI 5 mM glucose + 10% dialyzed FBS, 0.19 µM	113	130	98.6
RPMI 5 mM glucose + 10% dialyzed FBS, 0.569 µM	120	124	118
RPMI 5 mM glucose + 10% dialyzed FBS, 1.71 µM	118	113	82.6
RPMI 5 mM glucose + 10% dialyzed FBS, 5.12 µM	79.7	91.9	24.8
RPMI 5 mM glucose + 10% dialyzed FBS, 15.4 µM	19.3	7.88	5.27
RPMI 5 mM glucose + 10% dialyzed FBS, 46.1 µM	11.9	3.87	4.09

AUC of viability dose-response curve
Details	NOMO1 [4]	P12-Ichikawa [5]	SEM cells [6]
HPLM + 10% dialyzed FBS	375	396	367
RPMI 5 mM glucose + 10% FBS	406	395	326
RPMI 5 mM glucose + 10% dialyzed FBS	398	399	362

CCCC[S+](=N)([O-])CCC(N)C(=O)O (configuration not stated)
cell viability [%]
Details	NOMO1 [1]	P12-Ichikawa [2]	SEM cells [3]
HPLM + 10% dialyzed FBS, 0.000781 µM	120	113	87.1
HPLM + 10% dialyzed FBS, 0.00234 µM	122	124	78.5
HPLM + 10% dialyzed FBS, 0.00702 µM	138	127	102
HPLM + 10% dialyzed FBS, 0.0211 µM	138	126	107
HPLM + 10% dialyzed FBS, 0.0632 µM	157	132	124
HPLM + 10% dialyzed FBS, 0.19 µM	131	137	108
HPLM + 10% dialyzed FBS, 0.569 µM	150	135	132
HPLM + 10% dialyzed FBS, 1.71 µM	142	139	102
HPLM + 10% dialyzed FBS, 5.12 µM	148	131	109
HPLM + 10% dialyzed FBS, 15.4 µM	89.2	128	97.5
HPLM + 10% dialyzed FBS, 46.1 µM	28.7	6.85	41.6
RPMI 5 mM glucose + 10% FBS, 0.000781 µM	–	–	114
RPMI 5 mM glucose + 10% FBS, 0.00234 µM	–	–	109
RPMI 5 mM glucose + 10% FBS, 0.00702 µM	–	–	136
RPMI 5 mM glucose + 10% FBS, 0.0211 µM	–	–	131
RPMI 5 mM glucose + 10% FBS, 0.0632 µM	–	–	113
RPMI 5 mM glucose + 10% FBS, 0.19 µM	–	–	136
RPMI 5 mM glucose + 10% FBS, 0.569 µM	–	–	128
RPMI 5 mM glucose + 10% FBS, 1.71 µM	–	–	104
RPMI 5 mM glucose + 10% FBS, 5.12 µM	–	–	125
RPMI 5 mM glucose + 10% FBS, 15.4 µM	–	–	103
RPMI 5 mM glucose + 10% FBS, 46.1 µM	–	–	84.6
RPMI 5 mM glucose + 10% dialyzed FBS, 0.000781 µM	–	–	120
RPMI 5 mM glucose + 10% dialyzed FBS, 0.00234 µM	–	–	108
RPMI 5 mM glucose + 10% dialyzed FBS, 0.00702 µM	–	–	131
RPMI 5 mM glucose + 10% dialyzed FBS, 0.0211 µM	–	–	122
RPMI 5 mM glucose + 10% dialyzed FBS, 0.0632 µM	–	–	137
RPMI 5 mM glucose + 10% dialyzed FBS, 0.19 µM	–	–	140
RPMI 5 mM glucose + 10% dialyzed FBS, 0.569 µM	–	–	128
RPMI 5 mM glucose + 10% dialyzed FBS, 1.71 µM	–	–	146
RPMI 5 mM glucose + 10% dialyzed FBS, 5.12 µM	–	–	157
RPMI 5 mM glucose + 10% dialyzed FBS, 15.4 µM	–	–	111
RPMI 5 mM glucose + 10% dialyzed FBS, 46.1 µM	–	–	120

AUC of viability dose-response curve
Details	NOMO1 [4]	P12-Ichikawa [5]	SEM cells [6]
HPLM + 10% dialyzed FBS	441	453	459
RPMI 5 mM glucose + 10% FBS	462	469	462
RPMI 5 mM glucose + 10% dialyzed FBS	461	465	458
